Laboratory results from PubChem BioAssay AID1963850 (Molecular Pharmacology Branch, DTP, NCI, 2024).
pIC50: −log10 of the molar value.

System: 192522-019-R-J2-PDC complex tumor spheroid viability
Test: Anticancer human tumor 192522-019-R-J2-PDC patient-derived colon adenocarcinoma cell line growth inhibition [POLQ]
Details: for pIC50: curve of first compound; for viability, T/C: stronger effect = lower value
Summary of the method: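 Complex spheroid viability model combining PDC tumour cells with endothelial (HUVEC) and MSC stromal cells. Novobiocin, ART-558 or RP6685 were tested singly and in combination with standard and investigational anticancer drugs. Each was titrated in half-log steps from near clinical Cmax, or from 10 microM where Cmax was unknown.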

[1] = second compound 0.0316 µM, first compound 0.0316 µM
[2] = second compound 0.0316 µM, first compound 0.1 µM
[3] = second compound 0.0316 µM, first compound 0.316 µM
[4] = second compound 0.0316 µM, first compound 1 µM
[5] = second compound 0.0316 µM, first compound 3.16 µM
[6] = second compound 0.0316 µM, first compound 10 µM
[7] = second compound 0.1 µM, first compound 0.0316 µM
[8] = second compound 0.1 µM, first compound 0.1 µM
[9] = second compound 0.1 µM, first compound 0.316 µM
[10] = second compound 0.1 µM, first compound 1 µM
[11] = second compound 0.1 µM, first compound 3.16 µM
[12] = second compound 0.1 µM, first compound 10 µM
[13] = second compound 0.316 µM, first compound 0.0316 µM
[14] = second compound 0.316 µM, first compound 0.1 µM
[15] = second compound 0.316 µM, first compound 0.316 µM
[16] = second compound 0.316 µM, first compound 1 µM
[17] = second compound 0.316 µM, first compound 3.16 µM
[18] = second compound 0.316 µM, first compound 10 µM
[19] = second compound 1 µM, first compound 0.0316 µM
[20] = second compound 1 µM, first compound 0.1 µM
[21] = second compound 1 µM, first compound 0.316 µM
[22] = second compound 1 µM, first compound 1 µM
[23] = second compound 1 µM, first compound 3.16 µM
[24] = second compound 1 µM, first compound 10 µM
[25] = second compound 3.16 µM, first compound 0.0316 µM
[26] = second compound 3.16 µM, first compound 0.1 µM
[27] = second compound 3.16 µM, first compound 0.316 µM
[28] = second compound 3.16 µM, first compound 1 µM
[29] = second compound 3.16 µM, first compound 3.16 µM
[30] = second compound 3.16 µM, first compound 10 µM
[31] = second compound 10 µM, first compound 0.0316 µM
[32] = second compound 10 µM, first compound 0.1 µM
[33] = second compound 10 µM, first compound 0.316 µM
[34] = second compound 10 µM, first compound 1 µM
[35] = second compound 10 µM, first compound 3.16 µM
[36] = second compound 10 µM, first compound 10 µM
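Note: spheroids exposed to drugs for seven days before reading.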
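Throughout, for viability, T/C: 100% = DMSO vehicle control viability in luminescence.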

Structure (SMILES): C=CC(=O)N1CCN(c2nc(=O)n(-c3c(C)ccnc3C(C)C)c3nc(-c4c(O)cccc4F)c(F)cc23)C(C)C1 (stereo unspecified) + COC1C(OC(N)=O)C(O)C(Oc2ccc3c(O)c(NC(=O)c4ccc(O)c(CC=C(C)C)c4)c(=O)oc3c2C)OC1(C)C
- pIC50 (second compound 0.0316 µM): < 5.00
- pIC50 (second compound 0.1 µM): < 5.00
- pIC50 (second compound 0.316 µM): < 5.00
- pIC50 (second compound 1 µM): < 5.00
- pIC50 (second compound 3.16 µM): < 5.00
- pIC50 (second compound 10 µM): < 5.00
- viability, T/C [1]: 107%
- viability, T/C [2]: 96.2%
- viability, T/C [3]: 103%
- viability, T/C [4]: 98.7%
- viability, T/C [5]: 107%
- viability, T/C [6]: 97%
- viability, T/C [7]: 101%
- viability, T/C [8]: 91.1%
- viability, T/C [9]: 93.3%
- viability, T/C [10]: 96.5%
- viability, T/C [11]: 101%
- viability, T/C [12]: 105%
- viability, T/C [13]: 103%
- viability, T/C [14]: 101%
- viability, T/C [15]: 101%
- viability, T/C [16]: 99.7%
- viability, T/C [17]: 105%
- viability, T/C [18]: 114%
- viability, T/C [19]: 97.7%
- viability, T/C [20]: 105%
- viability, T/C [21]: 112%
- viability, T/C [22]: 110%
- viability, T/C [23]: 109%
- viability, T/C [24]: 121%
- viability, T/C [25]: 103%
- viability, T/C [26]: 105%
- viability, T/C [27]: 109%
- viability, T/C [28]: 106%
- viability, T/C [29]: 117%
- viability, T/C [30]: 102%
- viability, T/C [31]: 104%
- viability, T/C [32]: 92.5%
- viability, T/C [33]: 105%
- viability, T/C [34]: 96.8%
- viability, T/C [35]: 118%
- viability, T/C [36]: 107%

Structure (SMILES): CC(C)n1c(=O)n(C)c2cnc3cc(F)c(-c4ccc(OCCCN5CCCCC5)nc4)cc3c21 + COC1C(OC(N)=O)C(O)C(Oc2ccc3c(O)c(NC(=O)c4ccc(O)c(CC=C(C)C)c4)c(=O)oc3c2C)OC1(C)C
- pIC50 (second compound 0.0316 µM): < 5.00
- pIC50 (second compound 0.1 µM): < 5.00
- pIC50 (second compound 0.316 µM): < 5.00
- pIC50 (second compound 1 µM): < 5.00
- pIC50 (second compound 3.16 µM): < 5.00
- pIC50 (second compound 10 µM): < 5.00
- viability, T/C [1]: 107%
- viability, T/C [2]: 93.2%
- viability, T/C [3]: 115%
- viability, T/C [4]: 112%
- viability, T/C [5]: 112%
- viability, T/C [6]: 93.9%
- viability, T/C [7]: 97.5%
- viability, T/C [8]: 100%
- viability, T/C [9]: 108%
- viability, T/C [10]: 108%
- viability, T/C [11]: 104%
- viability, T/C [12]: 95.2%
- viability, T/C [13]: 97.8%
- viability, T/C [14]: 95.5%
- viability, T/C [15]: 117%
- viability, T/C [16]: 115%
- viability, T/C [17]: 120%
- viability, T/C [18]: 106%
- viability, T/C [19]: 96.8%
- viability, T/C [20]: 102%
- viability, T/C [21]: 104%
- viability, T/C [22]: 110%
- viability, T/C [23]: 94.9%
- viability, T/C [24]: 104%
- viability, T/C [25]: 98.1%
- viability, T/C [26]: 107%
- viability, T/C [27]: 114%
- viability, T/C [28]: 108%
- viability, T/C [29]: 122%
- viability, T/C [30]: 102%
- viability, T/C [31]: 118%
- viability, T/C [32]: 112%
- viability, T/C [33]: 114%
- viability, T/C [34]: 120%
- viability, T/C [35]: 110%
- viability, T/C [36]: 107%

Structure (SMILES): CC1COCCN1c1cc(C2(O)CC3CCC(C2)O3)c2cnn(-c3ccn[nH]3)c2n1 (stereo unspecified) + COC1C(OC(N)=O)C(O)C(Oc2ccc3c(O)c(NC(=O)c4ccc(O)c(CC=C(C)C)c4)c(=O)oc3c2C)OC1(C)C
- pIC50 (second compound 0.0316 µM): 6.64
- pIC50 (second compound 0.1 µM): 6.62
- pIC50 (second compound 0.316 µM): 6.50
- pIC50 (second compound 1 µM): 6.60
- pIC50 (second compound 3.16 µM): 6.62
- pIC50 (second compound 10 µM): 6.61
- viability, T/C [1]: 95.5%
- viability, T/C [2]: 70.3%
- viability, T/C [3]: 41.9%
- viability, T/C [4]: 33.7%
- viability, T/C [5]: 42.8%
- viability, T/C [6]: 46.5%
- viability, T/C [7]: 102%
- viability, T/C [8]: 81.8%
- viability, T/C [9]: 39.8%
- viability, T/C [10]: 33%
- viability, T/C [11]: 41.6%
- viability, T/C [12]: 47%
- viability, T/C [13]: 101%
- viability, T/C [14]: 83.4%
- viability, T/C [15]: 50.8%
- viability, T/C [16]: 36.9%
- viability, T/C [17]: 40.7%
- viability, T/C [18]: 48.5%
- viability, T/C [19]: 96.3%
- viability, T/C [20]: 73.5%
- viability, T/C [21]: 45%
- viability, T/C [22]: 33.5%
- viability, T/C [23]: 41.7%
- viability, T/C [24]: 53.1%
- viability, T/C [25]: 94%
- viability, T/C [26]: 77.4%
- viability, T/C [27]: 39.8%
- viability, T/C [28]: 34.4%
- viability, T/C [29]: 41.3%
- viability, T/C [30]: 49.1%
- viability, T/C [31]: 93.1%
- viability, T/C [32]: 70.8%
- viability, T/C [33]: 42.1%
- viability, T/C [34]: 38.5%
- viability, T/C [35]: 45.9%
- viability, T/C [36]: 51%
